Data as given in patent publication US11186577B2, “Vasopressin receptor antagonists and products and methods related thereto” (BlackThorn Therapeutics, Inc., priority 2017, dated 2021).
pIC50: −log10 of the molar value. Read-outs that look alike come from different tables or passages of the source.

Tests used:
[1] = biological target: human Arginine Vasopressin Receptor V2 (AVPR2) (Homo sapiens (Human), UniProt P30518); assay: Vasopressin V2 receptor antagonist assay (cAMP TR-FRET, 1321N1 cells); type: cell-based
Chain of human Arginine Vasopressin Receptor V2 (AVPR2) (P30518 whole entry): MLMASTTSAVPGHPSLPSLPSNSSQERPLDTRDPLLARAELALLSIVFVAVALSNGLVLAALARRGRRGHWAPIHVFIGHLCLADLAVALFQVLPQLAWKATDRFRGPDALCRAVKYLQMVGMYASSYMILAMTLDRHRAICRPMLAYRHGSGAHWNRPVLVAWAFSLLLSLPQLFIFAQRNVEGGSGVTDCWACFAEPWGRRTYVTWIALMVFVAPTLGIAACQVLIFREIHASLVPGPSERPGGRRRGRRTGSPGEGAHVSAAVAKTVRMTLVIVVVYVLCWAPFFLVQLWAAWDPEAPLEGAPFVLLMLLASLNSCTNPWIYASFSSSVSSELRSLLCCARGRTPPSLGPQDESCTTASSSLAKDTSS
Method: The purpose of the assay was to determine the inhibitory effect of synthesized compounds on the Vasopressin receptor 2. […] Arginine Vasopressin (AVP) evokes an increase in intracellular cAMP in these cells which is measured in a TR-FRET assay using a Europium cAMP tracer and ULight labelled antibody reagents contained in a LANCE Ultra cAMP kit (Perkin Elmer #TRF0263). […] Test compounds were assessed for their ability to affect the magnitude of the response to AVP, with antagonists showing a concentration-dependent decrease in the AVP-mediated reduction in TR-FRET signal.
cAMPZen V2 assay ready cells were thawed at 37° C. and resuspended directly from frozen in 9 ml growth medium consisting of DMEM supplemented with 10% v/v fetal bovine serum, 1× non-essential amino acids, and 1 mM sodium pyruvate. Cells were spun at 1000 rpm for 3 minutes and the supernatant was carefully removed and discarded. The pellet was resuspended in 5 ml stimulation buffer and the cell density determined using the Vi-Cell automated cell counter. The cell suspension was diluted to a 0.2×10^6/ml suspension ready for plating. […] Stimulation buffer consisted of HBSS (+Ca/+Mg) supplemented with 5 mM HEPES, 0.1% BSA stabiliser and 0.5 mM IBMX.
At the start of each assay day the potency of AVP was assessed and an EC80 concentration determined for subsequent compound profiling. Assays were performed by first an addition of 2.5 μl of control or test compound at 4× final concentration in stimulation buffer followed by 2.5 μl of AVP at 4× final concentration in stimulation buffer. After a 1 hour reaction, detection reagents were added by first an addition of 5 μl EU-cAMP tracer, followed by 5 μl ULight-anti-cAMP both diluted as per the manufacturer's instructions. […] For compound profiling, test compounds were dispensed by the Labcyte Echo (10-point curve, 1:3 dilutions) in a target 0.1 μl volume then diluted 750-fold in stimulation buffer containing 3% DMSO prior to addition to the cells. At the end of the incubation period, 2.5 μl of AVP in stimulation buffer was added at the previously determined EC80 concentration.

[2] = biological target: human Arginine Vasopressin Receptor 1a (AVPR1a) (Homo sapiens (Human), UniProt P37288); assay: Vasopressin V1A receptor antagonist assay (AVP-evoked calcium, FLIPR, CHO-AVPR1a cells); type: cell-based
Chain of human Arginine Vasopressin Receptor 1a (AVPR1a) (P37288 whole entry): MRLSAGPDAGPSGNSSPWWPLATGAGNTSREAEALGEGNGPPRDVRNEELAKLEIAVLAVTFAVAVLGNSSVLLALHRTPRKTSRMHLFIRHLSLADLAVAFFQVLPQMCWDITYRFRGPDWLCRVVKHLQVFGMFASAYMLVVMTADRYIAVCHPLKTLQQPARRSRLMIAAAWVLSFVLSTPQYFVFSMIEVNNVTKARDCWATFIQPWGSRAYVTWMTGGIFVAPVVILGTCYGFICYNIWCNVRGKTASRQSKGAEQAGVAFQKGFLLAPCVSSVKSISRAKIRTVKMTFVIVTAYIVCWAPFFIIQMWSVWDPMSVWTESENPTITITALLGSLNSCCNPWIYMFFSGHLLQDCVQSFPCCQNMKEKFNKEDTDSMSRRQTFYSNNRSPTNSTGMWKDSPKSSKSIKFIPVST
How it was run: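 CHO cells expressing human AVPR1a, Calcium-6 dye loaded 60-90 min, preincubated with compound 15 min at 37° C., then challenged with AVP at its daily-determined EC80. FLIPR fluorescence; 10-point 1:3 series from 3 μM, duplicates.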

Row | SMILES | pIC50 [1] | pIC50 ([2]; read-out: V1a IC50) | pIC50 ([2]; in vitro antagonist assay, reference compounds, read-out: V1A IC50)
1 | CC1c2nnc(C3CC4(C3)CN(c3ccc(F)cn3)C4)n2-c2ccc(Cl)cc2CN1C(=O)C(C)(C)F (single isomer, unassigned) [Cpd 178A] | 6.30 to 7.00 | > 7.00 | –
2 | CN1Cc2cc(Cl)ccc2-n2c(nnc2C2CC3(C2)CN(c2ncccc2F)C3)C1 [compound 4] | < 6.00 | > 7.00 | –
3 | O=C(C1CC1)N1CC2(CC(c3nnc4n3-c3ccc(Cl)cc3CN(C(=O)C3(F)CC3)C4)C2)C1 [compound 136] | < 6.00 | > 7.00 | –
4 | CC1c2nnc(C3CC4(C3)CN(c3ccc(F)cn3)C4)n2-c2ccc(Cl)cc2CN1C(=O)OC1CC1 (single isomer, unassigned) [Cpd 191A] | < 6.00 | > 7.00 | –
5 | CC1c2nnc(C3CC4(C3)CN(c3ncccn3)C4)n2-c2ccc(Cl)cc2CN1C(=O)OC(CF)CF (single isomer, unassigned) [Cpd 202A] | < 6.00 | > 7.00 | –
6 | COC(=O)N1Cc2cc(Cl)ccc2-n2c(C3CC4(C3)CN(c3ncc(F)cn3)C4)nnc2C1C (single isomer, unassigned) [Cpd 170A] | 6.00 to 6.30 | > 7.00 | –
7 | COC(=O)N1Cc2cc(Cl)ccc2-n2c(C3CC4(C3)CN(c3ccc(F)cn3)C4)nnc2C1C (single isomer, unassigned) [142A] | < 6.00 | > 7.00 | –
8 | CC1c2nnc(C3CC4(C3)CN(c3ncccn3)C4)n2-c2ccc(Cl)cc2CN1C(=O)OC1CC1 (stereo not drawn) [compound 171] | < 6.00 | > 7.00 | –
9 | Clc1ccc2c(c1)CN(C1CCC1)Cc1nnc(C3CC4(C3)CN(c3ccccn3)C4)n1-2 [compound 41] | > 7.00 | > 7.00 | –
10 | CN1Cc2cc(Cl)ccc2-n2c(nnc2C2CC3(C2)CN(C(=O)C2CC2)C3)C1 [compound 28] | < 6.00 | > 7.00 | –
11 | CC1c2nnc(C3CC4(C3)CN(c3ccc(F)cn3)C4)n2-c2ccc(Cl)cc2CN1C (single isomer, unassigned) [Cpd 179A] | < 6.00 | > 7.00 | –
12 | CCOC(=O)N1Cc2cc(Cl)ccc2-n2c(C3CC4(C3)CN(c3ccc(F)cn3)C4)nnc2C1C (stereo not drawn) [compound 169] | < 6.00 | > 7.00 | –
13 | O=C(C(F)F)N1Cc2cc(Cl)ccc2-n2c(nnc2C2CC3(C2)CN(c2ccccn2)C3)C1 [compound 122] | 6.30 to 7.00 | > 7.00 | –
14 | CC1c2nnc(C3CC4(C3)CN(c3ncccn3)C4)n2-c2ccc(Cl)cc2CN1C(=O)OC1CC1 (single isomer, unassigned) [Cpd 171A] | < 6.00 | > 7.00 | –
15 | O=C(OC(CF)CF)N1Cc2cc(Cl)ccc2-n2c(nnc2C2CC3(C2)CN(c2ccc(F)cn2)C3)C1 [compound 79] | 6.00 to 6.30 | > 7.00 | –
16 | Clc1ccc2c(c1)CN(C1CC1)Cc1nnc(C3CC4(C3)CN(c3ccccn3)C4)n1-2 [compound 56] | 6.30 to 7.00 | > 7.00 | –
17 | CN1Cc2cc(Cl)ccc2-n2c(nnc2[C@H]2CC[C@H](Oc3ccccn3)CC2)C1 [balovaptan, reference compound] | – | – | > 7.00
18 | CC(CF)OC(=O)N1Cc2cc(Cl)ccc2-n2c(nnc2C2CC3(C2)CN(c2ccc(F)cn2)C3)C1 (stereo not drawn) [compound 78] | 6.30 to 7.00 | > 7.00 | –
19 | O=C(N1Cc2cc(Cl)ccc2-c2c(C3CC4(C3)CN(c3cccnn3)C4)noc2C1)C(F)(F)F [compound 105] | < 6.00 | > 7.00 | –
20 | COC(=O)N1Cc2cc(Cl)ccc2-n2c(C3CC4(C3)CN(c3cnccn3)C4)nnc2C1C (single isomer, unassigned) [Cpd 165A] | < 6.00 | > 7.00 | –
21 | FC(F)CN1Cc2cc(Cl)ccc2-n2c(nnc2C2CC3(C2)CN(c2ccccn2)C3)C1 [compound 52] | 6.30 to 7.00 | > 7.00 | –
22 | CN1Cc2cc(Cl)ccc2-n2c(nnc2C2CC3(C2)CN(c2ccc(F)cn2)C3)C1 [compound 1, 8-chloro-1-(2-(5-fluoropyridin-2-yl)-2-azaspiro[3.3]heptan-6-yl)-5-methyl-5,6-dihydro-4H-benzo[f][1,2,4]triazolo[4,3-a][1,4]diazepine] | < 6.00 | > 7.00 | –
23 | CN1Cc2cc(Cl)ccc2-n2c(nnc2C2CC3(C2)CN(c2cccc(F)n2)C3)C1 [compound 8] | < 6.00 | > 7.00 | –
24 | COC(=O)N1Cc2cc(Cl)ccc2-n2c(C3CC4(C3)CN(c3ncccn3)C4)nnc2C1C (stereo not drawn) [compound 166] | < 6.00 | > 7.00 | –

Row | SMILES | pIC50 [1] | pIC50 ([2]; read-out: V1a IC50) | pIC50 ([2]; in vitro antagonist assay, reference compounds, read-out: V1A IC50)
25 | COC(=O)N1Cc2cc(Cl)ccc2-n2c(C3CC4(C3)CN(c3ncc(F)cn3)C4)nnc2C1C (stereo not drawn) [compound 170] | < 6.00 | > 7.00 | –
26 | CC(C)OC(=O)N1Cc2cc(Cl)ccc2-n2c(C3CC4(C3)CN(c3ccc(F)cn3)C4)nnc2C1C (single isomer, unassigned) [Cpd 163A] | < 6.00 | > 7.00 | –
27 | CC1c2nnc(C3CC4(C3)CN(c3ccc(F)cn3)C4)n2-c2ccc(Cl)cc2CN1C(=O)C1(F)CC1 (stereo not drawn) [compound 174] | < 6.00 | > 7.00 | –
28 | CN1Cc2cc(Cl)ccc2-n2c(nnc2C2CC3(C2)CN(c2ccccn2)C3)C1 [compound 2] | < 6.00 | > 7.00 | –
29 | COC(=O)N1Cc2cc(Cl)ccc2-n2c(C3CC4(C3)CN(c3ncccc3F)C4)nnc2C1C (stereo not drawn) [compound 182] | 6.00 to 6.30 | > 7.00 | –
30 | CCN1Cc2cc(Cl)ccc2-n2c(nnc2C2CC3(C2)CN(c2cnccn2)C3)C1 [compound 46] | < 6.00 | > 7.00 | –
31 | CC1c2nnc(C3CC4(C3)CN(c3ccccn3)C4)n2-c2ccc(Cl)cc2CN1C(=O)C1(F)CC1 (single isomer, unassigned) [Cpd 181A] | 6.30 to 7.00 | > 7.00 | –
32 | O=C(C(F)F)N1Cc2cc(Cl)ccc2-n2c(nnc2C2CC3(C2)CN(C(=O)C2(F)CC2)C3)C1 [compound 134] | < 6.00 | > 7.00 | –
33 | CC(C)OC(=O)N1Cc2cc(Cl)ccc2-n2c(C3CC4(C3)CN(c3cnccn3)C4)nnc2C1C (stereo not drawn) [compound 164] | < 6.00 | > 7.00 | –
34 | COC(=O)N1Cc2cc(Cl)ccc2-n2c(C3CC4(C3)CN(c3ccc(F)cn3)C4)nnc2C1C (single isomer, unassigned) [Cpd 142B] | < 6.00 | 6.00 to 6.30 | –
35 | CC1c2nnc(C3CC4(C3)CN(c3ccc(F)cn3)C4)n2-c2ccc(Cl)cc2CN1C(=O)C1(F)CC1 (single isomer, unassigned) [Cpd 174A] | < 6.00 | > 7.00 | –
36 | CC(C)OC(=O)N1Cc2cc(Cl)ccc2-n2c(C3CC4(C3)CN(c3ncccn3)C4)nnc2C1C (stereo not drawn) [compound 167] | < 6.00 | > 7.00 | –
37 | CCOC(=O)N1Cc2cc(Cl)ccc2-n2c(C3CC4(C3)CN(c3ncccn3)C4)nnc2C1C (single isomer, unassigned) [Cpd 168A] | < 6.00 | > 7.00 | –
38 | CCN1Cc2cc(Cl)ccc2-n2c(nnc2C2CC3(C2)CN(c2ccc(F)cn2)C3)C1 [compound 49] | 6.30 to 7.00 | > 7.00 | –
39 | Fc1ccc(N2CC3(CC(c4nnc5n4-c4ccc(Cl)cc4CN(C4CCC4)C5)C3)C2)nc1 [compound 42] | > 7.00 | > 7.00 | –
40 | COC(=O)N1Cc2cc(Cl)ccc2-n2c(C3CC4(C3)CN(c3ncccn3)C4)nnc2C1C (single isomer, unassigned) [Cpd 166A] | < 6.00 | > 7.00 | –
41 | CC(=O)N1Cc2cc(Cl)ccc2-n2c(nnc2C2CC3(C2)CN(c2ccc(F)cn2)C3)C1 [compound 64] | 6.30 to 7.00 | > 7.00 | –
42 | CC1c2nnc(C3CC4(C3)CN(c3ncc(F)cn3)C4)n2-c2ccc(Cl)cc2CN1C(=O)OC1(C)CC1 (stereo not drawn) [compound 173] | < 6.00 | > 7.00 | –
43 | CC(C)N1Cc2cc(Cl)ccc2-n2c(nnc2C2CC3(C2)CN(c2ncccc2F)C3)C1 [compound 54] | 6.00 to 6.30 | > 7.00 | –
44 | CCOC(=O)N1Cc2cc(Cl)ccc2-n2c(C3CC4(C3)CN(c3ncccn3)C4)nnc2C1C (stereo not drawn) [compound 168] | < 6.00 | > 7.00 | –
45 | CN1Cc2cc(Cl)ccc2-n2c(nnc2C2CC3(C2)CN(c2cnccn2)C3)C1 [compound 3] | < 6.00 | > 7.00 | –
46 | COC(=O)N1Cc2cc(Cl)ccc2-n2c(C3CC4(C3)CN(c3cnccn3)C4)nnc2C1C (stereo not drawn) [compound 165] | < 6.00 | > 7.00 | –
47 | Clc1ccc2c(c1)CN(C1COC1)Cc1nnc(C3CC4(C3)CN(c3ccccn3)C4)n1-2 [compound 57, 8-chloro-5-(oxetan-3-yl)-1-(2-(pyridin-2-yl)-2-azaspiro[3.3]heptan-6-yl)-5,6-dihydro-4H-benzo[f][1,2,4]triazolo[4,3-a][1,4]diazepine] | < 6.00 | > 7.00 | –
